Measurements published in US7749969B2, “N- or C- terminally modified small peptides” (Zealand Pharma A/S, priority 2005, dated 2010).
Square brackets hold non-standard residues; d marks the D form. Peptide text beside a SMILES is read from it. * marks the point of attachment. Bz = O=C(c1ccccc1)*

Tests used:
[1] = system: calcium-induced arrhythmias; assay: Calcium-induced arrhythmia model (time lag to conduction block after CaCl2 infusion); format: in vivo, mouse; details: male NMRI mice; 1 nmol/kg i.v. 3 min before CaCl2 infusion; (tarr test compound − tarr vehicle)×100/tarr vehicle
Description: Peptides suitable for administration to cardiac cells can be identified in an in vivo model of calcium-induced arrhythmias according to the model of Lynch et al. (1981) J Cardiovasc. Pharmacol. 3:49-60. Mice (25-30 g) are anaesthetized with a neurolept anaesthetic combination and an i.v. cannula is inserted into the tail vein. A lead II ECG signal is recorded continuously by positioning a stainless steel ECG electrodes on the right forelimb and on the left hind limb. The ground electrode is placed on the right hind limb. The signal is amplified (×5.000-10.000) and filtered (0.1-150 Hz) via a Hugo Sachs Electronic model 689 ECG module. The analogue signal is digitized via a 12 bit data acquisition board (Data Translation model DT321) and sampled at 1000 Hz using the Notocord HEM 3.1 software for Windows NT. After a 10-minute equilibration period, the test sample of compound is injected into the tail vein. Mice pre-treated with buffer are tested as a measure of the control level in untreated animals. The injection volume is 100 μl in all experiments.
Infusion of CaCl2 (30 mg/ml, 0.1 ml/min≈100 mg/kg/min (calcium chloride-2-hydrate, Riedel-de Haën, Germany)) is started 3 min after i.v. administration of drug or vehicle. The time lag to onset of 2nd degree AV-block is determined as the time from the start of CaCl2 infusion until the first arrhythmic event occurs. An event of 2nd degree AV-block is defined as intermittent failure of the AV conduction characterised by a P-wave without the concomitant QRS complex.
Responses are expressed relative to the time until 2nd degree AV-block occurred in vehicle treated mice. The maximal effect of compounds (e.g., N- or C-terminally modified peptides of the invention, AAP, AAP10 or controls) is determined. […] Preferably, the compounds provide at least about 40% of the activity of AAP, for example at least about 50% of the activity of AAP, such as about 60% of the activity of AAP, for example at least about 70% of the activity of AAP, such as at least about 80% of the activity of AAP, for example at least about 90% of the activity of AAP, for example at least about substantially the same activity of AAP, such as about 110% of the activity of AAP, for example at least about 120% of the activity of AAP, such as at least about 130% of the activity of AAP, for example at least about 140% of the activity of AAP, such as about 150% of the activity of AAP, for example at least about 160% of the activity of AAP, such as at least about 170% of the activity of AAP, for example at least about 180% of the activity of AAP, preferably at least about 190% of the activity of AAP, more preferably at least about 200 or greater % of the activity of AAP (i.e., the compounds show time lags of approximately the same duration as induced by AAP).
The anti-arrhythmic effect of the present compounds was tested in a model of calcium-induced arrhythmias according to the model of Lynch et al., J. Cardiovasc. Pharmacol. (1981), 3: 49-60. Male NMRI mice (25-30 grams; Bomholdtgaard, L I. Skendsved, Denmark) were anesthetized with a neurolept anesthetic combination (Hynorm® (fentanyl citrate 0.315 mg/mL and fuanisone 10 mg/mL) and midazolam at 5 mg/mL. Commercial solutions of Hynorm® and midazolam were diluted 1:1 in distilled water, and one part Hynorm® was mixed with one part diluted midazolam. Anesthesia is induced by s.c. administration of this solution in a dose of 50-75 μL/10 gram mouse.
An intravenous cannula was inserted into the tail vein. The lead II ECG signal was recorded continuously by positioning of stainless steel ECG electrodes on the right forelimb and on the left hind limb. The ground electrode was placed on the right hind limb. The signal was amplified (×5.000-10.000) and filtered (0.1-150 Hz) via a Hugo Sachs Electronic model 689 ECG module. […]

[2] = PAMPA-BBB permeability test (brain lipid artificial membrane); format: in vitro ADME; details: brain lipid 20% in dodecane; pH 7.4 buffer; 14 hr diffusion
Source text: The compounds of the invention show desirable pharmacokinetic profiles as evidenced from data obtained when testing the permeability of the compounds across a synthetic biomimetic membrane that resembles the blood brain barrier (PAMPA-BBB) and the compounds ability to inhibit the activity of cytochrome P 450 oxidase isozyme 3A4. Normally it is desirous to avoid having drugs targeting the cardiovascular systems and other non-CNS ailments such as osteoporosis being less able to cross the blood brain barrier and thus penetrate into the central nervous system.
Permeability test: Compounds in DMSO solution are added to pH 7.4 buffer in a 96 well plate (“donor”). The buffer is placed in contact with a 96 well filter plate in which the pours have been filled with an artificial membrane (2% phosphatidyl choline in dodecane). The top wells of the filter plate are filled with aqueous buffer (“acceptor”). Compound molecules diffuse into the artificial membrane and then into the acceptor buffer. After a 14 hr diffusion experiment, the donor and acceptor wells are measured on a UV plate reader and compared to a standard. The experiment is termed “PAMPA”. Permeability-BBB: The PAMPA experiment above is repeated using brain lipid (20% in dodecane) to provide a prediction of blood-brain barrier permeation by passive diffusion.

[3] = molecular target: CYP 3A4 (Homo sapiens, UniProt P08684); assay: Cytochrome P450 oxidase (CYP) inhibition, fluorescent probe; format: in vitro ADME; details: recombinant human CYP isozyme 3A4
Sequence of CYP 3A4 (P08684 whole entry): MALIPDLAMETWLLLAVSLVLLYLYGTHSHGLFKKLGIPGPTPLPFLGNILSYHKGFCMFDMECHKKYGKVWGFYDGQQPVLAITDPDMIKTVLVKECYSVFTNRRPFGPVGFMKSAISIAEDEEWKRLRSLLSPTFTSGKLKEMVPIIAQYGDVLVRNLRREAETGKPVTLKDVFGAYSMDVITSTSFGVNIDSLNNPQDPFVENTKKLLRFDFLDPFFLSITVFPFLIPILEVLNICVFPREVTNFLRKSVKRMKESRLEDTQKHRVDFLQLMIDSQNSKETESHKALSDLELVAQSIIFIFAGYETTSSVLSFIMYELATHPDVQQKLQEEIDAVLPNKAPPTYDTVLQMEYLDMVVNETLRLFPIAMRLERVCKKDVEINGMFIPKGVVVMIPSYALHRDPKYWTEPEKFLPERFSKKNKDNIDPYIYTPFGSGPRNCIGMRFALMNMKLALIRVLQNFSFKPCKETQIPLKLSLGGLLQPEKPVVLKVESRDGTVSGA
Source text: Cytochrome P450 enzymes (CYPs) constitute a superfamily of heme proteins involved in the metabolism of endogenous and exogenous compounds in living organisms. In particular, a number of CYP isozymes are important in the oxidative metabolism of drug molecules. Interactions with these enzymes could lead to altered pharmacokinetic parameters, such as half life, Cmax, or AUC of other co-administered drug molecules. To reduce this kind of interaction in vitro screening of drug candidates for inhibition of drug-metabolizing CYPs has been carried out.
Cytochrome P oxidase (CYP) Inhibition: The compound solution is added to a mixture of recombinant human CYP isozymes, NADPH regenerating solution, buffer, and “probe” compounds for each isozyme. The degree of reduction in the rate of metabolism of the probe to a fluorescent metabolite is an indication of the potential CYP inhibition of the test compound. The CYP 450 isozyme tested is 3A4.

## NC(=O)CNC(=O)[C@H](CC(N)=O)NC(=O)Cc1cc(=O)oc2cc(O)ccc12 [Compound 1, N-(7-hydroxycoumarin-4-acetyl)-Asn-Gly-NH2]
[1]
  % response (increase of time lag to onset of arrhythmias relative to vehicle): 20.9%

## NC(=O)[C@H](Cc1ccc(O)cc1)NC(=O)CNC(=O)CO [Compound 2, N-(hydroxyacetyl)-Gly-Tyr-NH2]
[1]
  % response (increase of time lag to onset of arrhythmias relative to vehicle): 48.7%

## NC(=O)C[C@H](NC(=O)CS)C(=O)N[C@@H](Cc1ccc(O)cc1)C(N)=O [Compound 7, N-(thiohydroxyacteyl)-Asn-Tyr-NH2]
[2]
  PAMPA-BBB: 0 10^−6 cm/s
[3]
  CYP450 Inhibition at 3 μM (% Inhibition) CYP 3A4: <15 % Inhibition

## CC(=O)OCC(=O)N[C@@H](CC(N)=O)C(=O)N[C@@H](Cc1ccc(O)cc1)C(N)=O [Compound 8]
[1]
  % response (increase of time lag to onset of arrhythmias relative to vehicle): 16.5%
[2]
  PAMPA-BBB: 0 10^−6 cm/s
[3]
  CYP450 Inhibition at 3 μM (% Inhibition) CYP 3A4: <15 % Inhibition

## NCC(=O)N[C@@H](CC(N)=O)C(=O)NCc1ccc2ccc3cccc4ccc1c2c34 [Compound 12, H-Gly-Asn-NH(pyrenylmethyl)]
[1]
  % response (increase of time lag to onset of arrhythmias relative to vehicle): 38.0%
[2]
  PAMPA-BBB: 0 10^−6 cm/s
[3]
  CYP450 Inhibition at 3 μM (% Inhibition) CYP 3A4: <15 % Inhibition

## NC(=O)C[C@@H](NC(=O)Cc1cc(=O)oc2cc(O)ccc12)C(=O)NCC(=O)O [Compound 15, N-(7-hydroxycoumarin-4-acetyl)-D-Asn-Gly-OH]
[1]
  % response (increase of time lag to onset of arrhythmias relative to vehicle): 28.5%

## COCC(=O)N[C@@H](CC(N)=O)C(=O)N[C@@H](Cc1ccc(O)cc1)C(N)=O [Compound 16, (Methoxyacetyl)-Asn-Tyr-NH2]
[2]
  PAMPA-BBB: 0 10^−6 cm/s
[3]
  CYP450 Inhibition at 3 μM (% Inhibition) CYP 3A4: <15 % Inhibition

## N[C@@H](CCCCNC(=O)c1ccc([N+](=O)[O-])cc1)C(=O)NCC(=O)O [WO2004/048400 7, H-K(4-nitrobenzoyl)-G-OH, reference compound]
[3]
  CYP450 Inhibition at 3 μM (% Inhibition) CYP 3A4: 15–25 % Inhibition

## CN(CC(=O)O)C(=O)[C@@H](N)CCCCNC(=O)c1ccc([N+](=O)[O-])cc1 [WO2004/048400 8, H-K(4-nitrobenzoyl)-Sar-OH, reference compound]
[3]
  CYP450 Inhibition at 3 μM (% Inhibition) CYP 3A4: 15–25 % Inhibition

## N[C@H](CCCCNC(=O)c1ccccc1)C(=O)NCC(=O)O [WO2004/048400 23, H-DLys(benzoyl)-G-OH, reference compound] (H-[dK](Bz)-Gly-OH)
[3]
  CYP450 Inhibition at 3 μM (% Inhibition) CYP 3A4: 15–25 % Inhibition

## COc1ccc(CNC(=O)C[C@H](N)C(=O)N[C@H](C)C(=O)O)cc1 [WO2004/048400 80, H-Asn(4-methoxybenzyl)-DAla-OH, reference compound]
[3]
  CYP450 Inhibition at 3 μM (% Inhibition) CYP 3A4: 15–25 % Inhibition

## H-Gly-Asn-NH(4-nitrophenyl) [Compound 10]
[1]
  % response (increase of time lag to onset of arrhythmias relative to vehicle): 38.0%
[2]
  PAMPA-BBB: 0 10^−6 cm/s
[3]
  CYP450 Inhibition at 3 μM (% Inhibition) CYP 3A4: <15 % Inhibition
